Source: publication PMC7037546, “High Cell Selectivity and Bactericidal Mechanism of Symmetric Peptides Centered on D-Pro–Gly Pairs” (International Journal of Molecular Sciences, 2020)
In brackets after ≈: the same amount, converted by molar mass. Non-standard residues stand in square brackets, D forms with d. Residues, ends and D or L forms follow the SMILES beside them. No end group written: not given here.

Assays:
[1] = tested on: Escherichia coli ATCC25922; experiment: microbe, parasite or virus in culture; details: ATCC25922, 16 h
Description: (§1) The antimicrobial activity of the designed peptides was examined using the micro-dilution method described previously. The bacteria were cultured for 16 h in MHB at 37 °C, and the microbial suspension was diluted to a final concentration of 10^5 colony-forming units (CFU)/mL. Then, 50 µL of MHB containing different concentrations peptides (0.25–256 µM) was mixed with 50 µL of bacterial solution, and the mixture was added to a 96-well plate. […] The assays were performed three times.

[2] = tested on: E. coli K88; details: micro-dilution in MHB, 10^5 CFU/mL, 16 h, OD 492 nm, performed three times
Description: as §1

[3] = tested on: Enterococcus faecalis ATCC29212; details: ATCC29212, 16 h
Description: as §1

[4] = tested on: Gram-negative bacteria; details: 16 h
Description: as §1

[5] = tested on: Klebsiella pneumonia CMCC46117; details: CMCC46117, 16 h
Description: as §1

[6] = tested on: Pseudomonas aeruginosa ATCC27853; details: ATCC27853, 16 h
Description: as §1

[7] = tested on: S. aureus ATCC29213; details: ATCC29213, 16 h
Description: as §1

[8] = tested on: Salmonella Pullorum NCTC5776; details: NCTC5776, 16 h
Description: as §1

[9] = tested on: Staphylococcus aureus ATCC25923; details: ATCC25923, 16 h
Description: as §1

[10] = tested on: methicillin-resistant S. aureus ATCC43300; details: ATCC43300, 16 h
Description: as §1

[11] = tested on: Gram-positive bacteria; experiment: Geometric mean of MICs and therapeutic index, Gram (+); type: cell-based; details: geometric mean over the Gram-positive strains of Table 2; 256 μM used when no activity at 128 μM
Description: as §1

[12] = tested on: RAW 264.7 cells; experiment: Cytotoxicity, CCK-8 assay; type: cell-based, murine; details: 64 μM peptide, 16 h, CCK-8, OD 450 nm
Description: (§2) The cytotoxicity was detected according to a CCK-8 assay as described previously. Briefly, RAW 264.7 and HEK293T cells were placed into 96-well plates at a density of 1.0–2.0 × 10^5, and then cultured for 16 h under conditions of 5% CO2. Then, two-fold diluted peptides in DMEM were added to the plates. After 16 h of culturing, CCK-8 (10%, v/v) was put into each well containing cell culture, and mixtures were cultured for 2 h. The cytotoxicity assay was examined by measuring the OD of the mixtures at 450 nm (Microplate reader, TECAN GENios F129004, Tecan, Salzburg, Austria). The assays were performed three times.

[13] = tested on: HEK293T cells; experiment: Cytotoxicity, CCK-8 assay; type: cell-based, human; details: 64 μM peptide, 16 h, CCK-8, OD 450 nm
Description: as §2

[14] = tested on: E. coli ATCC25922; type: cell-based, Escherichia coli; details: for MIC after pH treatment, pH 4 / MIC after pH treatment, pH 6 / MIC after pH treatment, pH 8 / MIC after pH treatment, pH 10: ATCC25922, 1 h; for MIC after temperature treatment, 0 °C / MIC after temperature treatment, 37 °C / MIC after temperature treatment, 100 °C / MIC in the presence of FeCl3 / MIC in the presence of KCl / MIC in the presence of MgCl2 / MIC in the presence of NH4Cl / MIC in the presence of NaCl / MIC in the presence of ZnCl2 / MIC, Control / MIC, Control (pH 7): ATCC25922, 16 h
Description: as §1
The salt, temperature, and pH sensitivities of designed peptides were determined by MIC assay as described previously. For the salt sensitivity assay, peptides were diluted in deionized water containing different salts, and mixed with E. coli ATCC25922 (10^5 CFU/mL). The final physiological concentrations of different salts were as follows: 150 mM NaCl, 4.5 mM KCl, 6 μM NH4Cl, 1 mM MgCl2, 8 μM ZnCl2, and 4 μM FeCl3. For temperature sensitivity, peptides were cooled on ice for 10 min, and incubated at 37 °C and 100 °C for 30 min. For pH sensitivity, peptides were treated with different pH for 1 h. Briefly, peptides were diluted in deionized water, and the pH of the solution was adjusted to 4.0, 6.0, 8.0, and 10.0 with HCl or NaOH. The subsequent steps were the same as for the MIC measurements. These tests were performed three times.

[15] = tested on: E. coli ATCC25922; details: ATCC25922, 16 h
Description: The combined antibacterial effect of peptides with other antibiotics was evaluated by checkerboard assay as described previously. […] Subsequently, each peptide at the same concentration was added to the longitudinal column of wells, and each antibiotic at the same concentration was added to the horizontal row of wells. A suspension at 10^5 CFU/mL was put into each well for 16 h at 37 °C. Each assay was performed three times.

CC(C)C[C@H](NC(=O)[C@H](CC(C)C)NC(=O)[C@H](CCCNC(=N)N)NC(=O)[C@H](CC(C)C)NC(=O)[C@H](CC(C)C)NC(=O)[C@H](CCCNC(=N)N)NC(=O)[C@H](CCCNC(=N)N)NC(=O)CNC(=O)[C@H]1CCCN1C(=O)[C@H](CCCNC(=N)N)NC(=O)[C@H](CCCNC(=N)N)NC(=O)[C@H](CC(C)C)NC(=O)[C@H](CC(C)C)NC(=O)[C@H](CCCNC(=N)N)NC(=O)[C@H](CC(C)C)NC(=O)[C@@H](N)CC(C)C)C(N)=O [LRpG] (H-LLRLLRR[dP]GRRLLRLL-NH2)
MIC [1]: 2 µM (≈ 4.03 µg/mL) | MIC [2]: 2 µM (≈ 4.03 µg/mL) | MIC [3]: 32 µM (≈ 64.4 µg/mL) | GM (geometric mean of MICs), Gram (−) [4]: 3.5 µM | MIC [5]: 4 µM (≈ 8.05 µg/mL) | MIC [6]: 8 µM (≈ 16.1 µg/mL) | MIC [7]: 16 µM (≈ 32.2 µg/mL) | MIC [8]: 4 µM (≈ 8.05 µg/mL) | MIC [9]: 16 µM (≈ 32.2 µg/mL) | MIC [10]: 16 µM (≈ 32.2 µg/mL) | GM (geometric mean of MICs), Gram (+) [11]: 19.0 µM | cell survival rate [12]: 92% | cell survival rate [13]: 93% | MIC after pH treatment, pH 4 [14]: 2 µM | MIC after pH treatment, pH 6 [14]: 2 µM | MIC after pH treatment, pH 8 [14]: 2 µM | MIC after pH treatment, pH 10 [14]: 4 µM | MIC after temperature treatment, 0 °C [14]: 2 µM (≈ 4.03 µg/mL) | MIC after temperature treatment, 37 °C [14]: 2 µM (≈ 4.03 µg/mL) | MIC after temperature treatment, 100 °C [14]: 2 µM (≈ 4.03 µg/mL) | MIC in the presence of FeCl3 [14]: 2 µM | MIC in the presence of KCl [14]: 2 µM | MIC in the presence of MgCl2 [14]: 2 µM | MIC in the presence of NH4Cl [14]: 2 µM | MIC in the presence of NaCl [14]: 8 µM | MIC in the presence of ZnCl2 [14]: 2 µM | MIC, Control [14]: 2 µM (≈ 4.03 µg/mL) | MIC, Control (pH 7) [14]: 2 µM | FICI in combination with Cefotaxime [15]: 1 | FICI in combination with Chloramphenicol [15]: 0.75 | FICI in combination with Ciprofloxacin [15]: 0.625 | FICI in combination with Streptomycin [15]: 0.5 | FICI in combination with other conventional antibiotics (additive effect) [15]: 0.625-1

FFRFFRRGGRRFFRFF-NH2 [FRGG]
MIC [1]: 8 µM | MIC [2]: 16 µM | MIC [3]: 32 µM | GM (geometric mean of MICs), Gram (−) [4]: 16 µM | MIC [5]: 16 µM | MIC [6]: 32 µM | MIC [7]: 16 µM | MIC [8]: 16 µM | MIC [9]: 32 µM | MIC [10]: 32 µM | GM (geometric mean of MICs), Gram (+) [11]: 26.9 µM | cell survival rate [12]: 66% | cell survival rate [13]: 76% | MIC after pH treatment, pH 4 [14]: 32 µM | MIC after pH treatment, pH 6 [14]: 8 µM | MIC after pH treatment, pH 8 [14]: 8 µM | MIC after pH treatment, pH 10 [14]: 32 µM | MIC after temperature treatment, 0 °C [14]: 8 µM | MIC after temperature treatment, 37 °C [14]: 8 µM | MIC after temperature treatment, 100 °C [14]: 8 µM | MIC in the presence of FeCl3 [14]: 8 µM | MIC in the presence of KCl [14]: 8 µM | MIC in the presence of MgCl2 [14]: 16 µM | MIC in the presence of NH4Cl [14]: 8 µM | MIC in the presence of NaCl [14]: 64 µM | MIC in the presence of ZnCl2 [14]: 16 µM | MIC, Control [14]: 8 µM | MIC, Control (pH 7) [14]: 8 µM

IIRIIRRGGRRIIRII-NH2 [IRGG]
MIC [1]: 8 µM | MIC [2]: 16 µM | MIC [3]: >128 µM | GM (geometric mean of MICs), Gram (−) [4]: 21.1 µM | MIC [5]: 32 µM | MIC [6]: 32 µM | MIC [7]: >128 µM | MIC [8]: 32 µM | MIC [9]: >128 µM | MIC [10]: >128 µM | GM (geometric mean of MICs), Gram (+) [11]: 256 µM | cell survival rate [12]: 95% | cell survival rate [13]: 96% | MIC after pH treatment, pH 4 [14]: 16 µM | MIC after pH treatment, pH 6 [14]: 8 µM | MIC after pH treatment, pH 8 [14]: 8 µM | MIC after pH treatment, pH 10 [14]: 16 µM | MIC after temperature treatment, 0 °C [14]: 8 µM | MIC after temperature treatment, 37 °C [14]: 8 µM | MIC after temperature treatment, 100 °C [14]: 8 µM | MIC in the presence of FeCl3 [14]: 8 µM | MIC in the presence of KCl [14]: 8 µM | MIC in the presence of MgCl2 [14]: 16 µM | MIC in the presence of NH4Cl [14]: 8 µM | MIC in the presence of NaCl [14]: 64 µM | MIC in the presence of ZnCl2 [14]: 16 µM | MIC, Control [14]: 8 µM | MIC, Control (pH 7) [14]: 8 µM

LLRLLRRGGRRLLRLL-NH2 [LRGG]
MIC [1]: 2 µM | MIC [2]: 4 µM | MIC [3]: 32 µM | GM (geometric mean of MICs), Gram (−) [4]: 4.6 µM | MIC [5]: 8 µM | MIC [6]: 8 µM | MIC [7]: 16 µM | MIC [8]: 4 µM | MIC [9]: 16 µM | MIC [10]: 32 µM | GM (geometric mean of MICs), Gram (+) [11]: 22.6 µM | cell survival rate [12]: 84% | cell survival rate [13]: 91% | MIC after pH treatment, pH 4 [14]: 2 µM | MIC after pH treatment, pH 6 [14]: 2 µM | MIC after pH treatment, pH 8 [14]: 2 µM | MIC after pH treatment, pH 10 [14]: 4 µM | MIC after temperature treatment, 0 °C [14]: 2 µM | MIC after temperature treatment, 37 °C [14]: 2 µM | MIC after temperature treatment, 100 °C [14]: 2 µM | MIC in the presence of FeCl3 [14]: 2 µM | MIC in the presence of KCl [14]: 2 µM | MIC in the presence of MgCl2 [14]: 4 µM | MIC in the presence of NH4Cl [14]: 2 µM | MIC in the presence of NaCl [14]: 8 µM | MIC in the presence of ZnCl2 [14]: 2 µM | MIC, Control [14]: 2 µM | MIC, Control (pH 7) [14]: 2 µM
